{"source": "patent US20250345446A1", "about": "(Draupnir Bio ApS, priority 2022, published 2025)", "key": {"[1]": {"target": "T1, soluble ectodomain of sortilin-6his (Homo sapiens, UniProt Q99523, V650M)", "T1 construct": "the soluble ectodomain of sortilin-6his is measured by microscale thermophoresis (MST)", "T1 sequence (Q99523 with tags, fused parts or gaps V650M)": "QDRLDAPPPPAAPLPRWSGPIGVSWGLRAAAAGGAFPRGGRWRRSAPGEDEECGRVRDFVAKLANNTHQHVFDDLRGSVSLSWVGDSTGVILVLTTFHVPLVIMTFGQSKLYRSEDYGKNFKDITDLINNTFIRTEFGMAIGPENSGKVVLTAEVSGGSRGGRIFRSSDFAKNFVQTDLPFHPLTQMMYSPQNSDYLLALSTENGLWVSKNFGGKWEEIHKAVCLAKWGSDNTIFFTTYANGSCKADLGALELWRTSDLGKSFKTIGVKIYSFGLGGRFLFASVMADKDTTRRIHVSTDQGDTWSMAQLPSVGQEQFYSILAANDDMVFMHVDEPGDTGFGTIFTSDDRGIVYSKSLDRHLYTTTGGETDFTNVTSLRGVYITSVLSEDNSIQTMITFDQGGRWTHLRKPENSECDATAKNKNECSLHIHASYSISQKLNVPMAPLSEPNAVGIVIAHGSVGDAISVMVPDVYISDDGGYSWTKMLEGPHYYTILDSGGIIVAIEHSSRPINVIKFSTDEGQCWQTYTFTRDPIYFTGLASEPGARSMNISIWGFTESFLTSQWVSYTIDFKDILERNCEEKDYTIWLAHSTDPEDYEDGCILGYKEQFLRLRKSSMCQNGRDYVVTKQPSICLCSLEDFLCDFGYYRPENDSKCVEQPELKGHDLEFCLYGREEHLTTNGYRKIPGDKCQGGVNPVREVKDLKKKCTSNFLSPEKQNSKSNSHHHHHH", "assay": "MST binding to soluble ectodomain of sortilin-6his", "conditions": "MST, read-out: KD score, binding to sortilin (Kd)"}, "[2]": {"tested_on": "HEK293 cells expressing full length sortilin receptor", "assay": "Cellular uptake of TNFalpha / Cy5-TNFalpha mediated by bifunctional compounds", "format": "cell-based", "conditions": "24 h, 0.5 nM to 20 μM, leupeptin 80 μM vs without", "protocol": "Cellular uptake of TNFalpha was investigated in HEK293 cells expressing full length sortilin receptor using a methodology analogous to example 3 with TNFalpha target.\nEfficacy of individual bifunctional compounds was assessed as AUC of TNFalpha internalisation (Table 9)"}, "HEK293/sortilin cells [3]": {"tested_on": "HEK293/sortilin cells", "assay": "Remaining TNFalpha in conditioned media (ELISA)", "format": "cell-based", "conditions": "after 72 h, 20 nM TNFalpha; added TNFalpha (100%) subtracted remaining TNFalpha (%)", "protocol": "In different experiments, HEK293/sortilin cells were incubated with compound gradient series and 20 nM TNFalpha for up to 72 h. Following incubation, remaining TNFalpha in conditioned media was evaluated using human TNF-alpha Quantikine ELISA Kit (R&D systems, DTA00D)."}, "HEK293/sortilin cells [4]": {"tested_on": "HEK293/sortilin cells", "assay": "Pulse-chase cellular degradation of TNFalpha (Western blot of lysates)", "format": "cell-based", "conditions": "24 h pre-incubation with compound 3 μM and TNFalpha 100 nM, chase 0 h to 24 h", "protocol": "To monitor cellular degradation of target over time, a pulse-chase experiment was performed: HEK293/sortilin cells were pre-incubated with bifunctional compound (3 μM) and TNFalpha (100 nM) for 24 h before replacing culture supernatant with fresh media without target and bifunctional compound. Following replacement of media, cells were incubated for up to 24 h and TNFa levels was assessed at different timepoints by Western blotting of cell lysates."}, "HEK293/sortilin cells [5]": {"tested_on": "HEK293/sortilin cells", "assay": "Lysosomal degradation of internalized AlexaFluor488-anti-DNP antibody (blotted lysates)", "format": "cell-based", "conditions": "6:30 h, AlexaFluor488-anti-DNP antibody 100 nM, compound 30 nM", "protocol": "Intracellular levels of AlexaFluor488-anti-DNP antibody (Thermo Fisher) following internalization was investigated in HEK293/sortilin cells. Cells (250k) were seeded in 4-well plates in 250 μL culture medium as described in Example 3 and incubated overnight.\nCulture medium was replaced with assay medium (as described in Example 3) with AlexaFluor488-anti-DNP antibody (Thermo Fisher) (100 nM) and BF005 (30 nM). Selected samples were added sortilin inhibitor, AF38469 (10 μM) or a lysosomal protease inhibitor, Leupeptin (80 μM) (Sigma Aldrich). Cells were incubated 3-6: 30 h in cell incubator before they were washed with dPBS (Bionordika) and medium was either replaced with assay medium without BF005 and AlexaFluor488-anti-DNP antibody and incubated in cell incubator for up to 24 h or cells were lysed. Following incubation, cells were lysed in lysis buffer, and lysates were subjected to SDS-PAGE before transfer of proteins to a nitrocellulose membrane as described in Example 4. AlexaFluor488 FI signal was detected using an iBright 1500 (Thermo Fisher). Following evaluation of FI signal, membrane was blocked and incubated with primary anti-β-actin antibody (1:3500) (Sigma Aldrich) and secondary anti-mouse-HRP antibody (1:3500) (Abcam) and developed and analyzed using ECL reagents (Cytiva) and iBright 1500 (Thermo Fisher), as described in example 4. […]"}, "HEK293/sortilin cells [6]": {"tested_on": "HEK293/sortilin cells", "assay": "Depletion of NA650 from cell culture supernatant", "format": "cell-based", "conditions": "after 48 and 72 hours, NA650 100 nM, 20 nM-5 μM", "protocol": "HEK293/sortilin cells were cultured in culture media containing DMEM (Lonza) further supplemented with 10% fetal bovine serum (Sigma), 1% GlutaMax Supplement (Gibco), penicillin-streptomycin (Thermo Fischer) and selection antibiotics 100 μg/mL Zeocin (Invitrogen). 35k cells/well were seeded in poly-L-lysine coated 96-well plates (Perkin Elmer) and allowed to incubate for 16-24 h in cell incubator (37° C., humidified, 5% CO2). Culture media were discarded, and the cells were washed with assay medium containing FluoroBright DMEM (Gibco) supplemented with 10% fetal bovine serum (Sigma) and 1% GlutaMax Supplement (Gibco). The media were discarded and replaced with assay media or assay medium containing 100 nM NA650 (Invitrogen). For wells evaluating the bifunctional compounds, the assay medium also contained concentrations ranging from 20 nM to 5 μM. After an incubation period of up to 72 h in the cell incubator the media were harvested and the presence of NA650 were evaluated by fluorescence intensity (FI) measurements of DyLight650 using a fluorescence plate reader (BMG Labtech Clariostar).\nHEK293/sortilin cells (35k cells/96-well) were seeded in culture media (as described in Example 3) and incubated for 24 h in cell incubator. Culture media were discarded, and the cells were washed with assay medium containing FluoroBright DMEM (Gibco) and supplements as described in Example 3, before incubation in assay medium containing 100 nM NA650 and small molecule bifunctional compounds (20 nM to 5 μM). After an incubation period of up to 72 h, the media were harvested and the presence of NA650 were evaluated by FI measurements of DyLight650 using a fluorescence plate reader (BMG Labtech Clariostar)."}, "HEK293/sortilin": {"tested_on": "HEK293/sortilin", "assay": "Cellular uptake of target in HEK293 cells expressing sortilin receptor (Example 22)", "format": "cell-based", "conditions": "3 h, 2 nM to 2 μM, corresponding targets", "description": "(§1) Cellular uptake of target was investigated in untransfected HEK239 cells and HEK293 cells expressing sortilin receptor in a methodology analogous to example 3."}, "[7]": {"tested_on": "untransfected HEK239 cells", "assay": "Cellular uptake of target in untransfected HEK293 cells (Example 22)", "format": "cell-based", "conditions": "HEK293 cells without sortilin, 3 h, 2 nM to 2 μM, corresponding targets", "description": "as §1"}, "[8]": {"target": "streptavidin, bifunctional compound and sortilin-6his (UniProt P22629+Q99523, V650M)", "assay": "TR-FRET ternary complex formation streptavidin / bifunctional peptide / sortilin-6his", "conditions": "Table 2; […] incubation, HTRF ratio 665/620 nm", "quoted_text": "In these experiments, the compounds of interest were titrated over 24-point in a 384-well TTP LVDS plate (SPT Labtech) to a final buffer composition of 50 mM Bis-Tris Propane pH 8, 50 mM NaCl, 0.05% Tween20, with or without 10% DMSO using a Mosquito LV pipetting robot (SPT Labtech).\nThe reaction was allowed to incubate for 2.5 hours at room temperature, at which point the HTRF signal ratio at 665/620 nm was determined using a plate reader (ClarioStar, BMG Labtech). All reactions were run in triplicates and data was represented as HTRF ratio as a function of bifunctional compound concentration."}, "TNFa plasma levels": {"tested_on": "TNFa plasma levels", "assay": "Mouse model of LPS induced acute systemic inflammation, plasma TNFa", "format": "in vivo", "conditions": "10 or 30 mg/kg, 1 hour after LPS, C57BL/6J mice, p<0.0001 (one-way ANOVA)", "protocol": "Degrader in vivo efficacy was investigated in a mouse model of lipopolysaccaride (LPS) induced acute systemic inflammation. Female C57BL/6J mice, 8 weeks of age were used in this model, and LPS was dosed as IP injection at a final concentration of 0.5 mg/kg in PBS at 10 ml/kg. 30 min to 3 hours prior LPS administration, animals were dosed with test compound (100-0.3 mg/kg/IP), dexamethasone (Dex) control (0.5 mg/kg/PO) or vehicle control (IP). Untreated (normal) animals were included as control for LPS induced TNFa expression. One hour post LPS administration, blood samples were collected and TNFa level was assessed by Cytometric Bead Array assay."}, "[9]": {"conditions": "Table 4, small molecule bifunctional compounds"}}, "note": "Read-outs that look alike come from different tables or passages of the source. Residues, ends and D or L forms follow the SMILES beside them. *: point of attachment. Biotin = O=C1N[C@H]2[C@H](CS[C@H]2CCCCC(=O)*)N1", "data": [{"smiles": "C[C@@H]1CN(c2ncc(-c3ccc4c(n3)N(Cc3cccnc3C#N)C(C)(C)C4=O)cn2)CCN1C(=O)CNC(=O)CCCCCCCCCCCNC(=O)c1cccc(Oc2ccc(C(=O)N[C@@H](CCC(C)(C)C)C(=O)O)cn2)c1", "note": "[BF042, (2S)-2-[[6-[3-[[12-[[2-[(2R)-4-[5-[1-[(2-cyano-3-pyridyl)methyl]-2,2-dimethyl-3-oxo-pyrrolo[2,3-b]pyridin-6-yl]pyrimidin-2-yl]-2-methyl-piperazin-1-yl]-2-oxo-ethyl]amino]-12-oxo-dodecyl]carbamoyl]phenoxy]pyridine-3-carbonyl]amino]-5,5-dimethyl-hexanoic acid]", "values": [{"measurement": "Kd", "setting": "[1]; [9]", "value": "1 to 10", "unit": "nM"}, {"measurement": "cell associated FI signal with addition of leupeptin", "setting": "[2]", "value": "marked increases cell associated signal"}, {"measurement": "Maximum clearance rates of TNFalpha from conditioned media", "setting": "HEK293/sortilin cells [3]", "value": 74.4, "unit": "%"}, {"measurement": "TNFalpha bands in cell lysate over time", "setting": "HEK293/sortilin cells [4]", "value": "barely detectable after 7 h"}]}, {"smiles": "CNC(=O)c1cccc2c(Oc3ccc(C(=O)N[C@@H](CCC(C)(C)C)C(=O)O)cn3)cccc12", "note": "[SB001, (2S)-5,5-dimethyl-2-[[6-[[5-(methylcarbamoyl)-1-naphthyl]oxy]pyridine-3-carbonyl]amino]hexanoic acid]", "values": [{"measurement": "Ig heavy chain (HC) band in lysates", "setting": "HEK293/sortilin cells [5]", "value": "absent"}]}, {"smiles": "CC(C)C[C@H](NC(=O)[C@H](CC(C)C)NC(=O)[C@H](CCC(N)=O)NC(=O)[C@H](Cc1ccccc1)NC(=O)CNC(=O)CNC(=O)[C@H](CO)NC(=O)CNC(=O)CNC(=O)CNC(=O)CNC(=O)[C@H](CO)NC(=O)CNC(=O)CNC(=O)CNC(=O)CNC(=O)[C@H](CO)NC(=O)CNC(=O)CNC(=O)CCCC[C@@H]1SC[C@@H]2NC(=O)N[C@@H]21)C(=O)O", "note": "[SEQ ID NO.: 155] (Biotin-GGSGGGGSGGGGSGGFQLL-OH)", "values": [{"measurement": "Kd", "setting": "[1]; Table 1, biotin-linker-peptide bifunctional compounds", "value": "100 to 2000", "unit": "nM"}, {"measurement": "NA650 FI signal in supernatant compared to SEQ ID NO.: 147 (in words)", "setting": "HEK293/sortilin cells [6]", "value": "further reduction of target in cell culture supernatant"}, {"measurement": "cell associated FI response to increasing degrader concentration", "setting": "HEK293/sortilin", "value": "bell-shaped FI response"}, {"measurement": "cell associated FI response to increasing degrader concentration", "setting": "[7]", "value": "No response"}, {"measurement": "AUC score, TR-FRET measurements of ternary complex formation", "setting": "[8]", "value": "++ (AUC > 5000)"}]}, {"smiles": "Cc1nc2cc(F)c(-c3cnc(N4CCN(C(=O)Cn5cc(COCCOCCOCC(=O)N6CCC(Oc7cccc(Oc8ccc(C(=O)N[C@@H](CCC(C)(C)C)C(=O)O)cn8)c7)CC6)nn5)[C@H](C)C4)nc3)nc2c(N[C@H](C)c2cc(C#N)ccc2F)c1Cl", "note": "[BF094, (2S)-2-[[6-[3-[[1-[2-[2-[2-[[1-[2-[(2R)-4-[5-[7-chloro-8-[[(1R)-1-(5-cyano-2-fluoro-phenyl)ethyl]amino]-3-fluoro-6-methyl-1,5-naphthyridin-2-yl]pyrimidin-2-yl]-2-methyl-piperazin-1-yl]-2-oxo-ethyl]triazol-4-yl]methoxy]ethoxy]ethoxy]acetyl]-4-piperidyl]oxy]phenoxy]pyridine-3-carbonyl]amino]-5,5-dimethyl-hexanoic acid]", "values": [{"measurement": "Kd", "setting": "[1]; [9]", "value": "1 to 10", "unit": "nM"}, {"measurement": "plasma TNFa compared to vehicle group", "setting": "TNFa plasma levels", "value": "significant decrease"}]}]}
